Measured values as given in US9788542B2, “Safened herbicidal compositions including 4-amino-3-chloro-5-fluoro-6-(4-chloro-2-fluoro-3-methoxyphenyl)pyridine-2-carbox) acid or a derivative thereof for use in corn (maize)” (Dow AgroSciences LLC, priority 2013, dated 2017).
Several values for one entry are separate records, joined by “and”; a condition that tells them apart may be missing. Equal entries are not always repeated. Where two headings read alike, the source gives them in different places.

Tests used:
Type in all cases: in vivo
[1] = system: ABUTH = Abutilon theophrasti Medik.; assay: Postemergence herbicidal activity, greenhouse, visual injury; conditions: for pest or weed control at 5 g/ha / pest or weed control at 40 g/ha: Abutilon theophrasti, post-emergence, 480 h, read-out: ABUTH Obs (observed visual injury)
Procedure: (§1) When required to ensure good germination and healthy plants, a fungicide treatment and/or other chemical or physical treatment was applied. The plants were grown for 7-36 days in a greenhouse with an approximate 14 hour photoperiod which was maintained at about 18° C. during the day and 17° C. during the night. Nutrients and water were added on a regular basis and supplemental lighting was provided with overhead metal halide 1000-Watt lamps as necessary. The plants were employed for testing when they reached the second or third true leaf stage. Treatments consisted of ester (benzyl) compound of formula (I) (Compound A benzyl ester) and various safeners alone and in combination. Compound of formula (I) and safener components were applied on active ingredient basis. For treatments comprised of formulated compounds, measured amounts of compound of formula (I) were placed individually in 25 mL glass vials and diluted in a volume of 1.25% volume per volume (v/v) Agri-dex crop oil concentrate to obtain stock solutions. […] Stock solutions of the formulated safeners were prepared following the same procedure. Application solutions were prepared by mixing the required amount of each stock solution and addition of an appropriate volume of an aqueous mixture of 1.25% v/v of Agri-dex crop oil concentrate to the appropriate final concentrations of application solutions. […] Application solutions were prepared by adding an appropriate amount of each stock solution and diluted to the appropriate final concentrations with the addition of an appropriate volume of an aqueous mixture of 1.25% (v/v) Agri-dex crop oil concentrate. Application solutions were applied to the plant material with an overhead Mandel track sprayer equipped with […] nozzles calibrated to deliver 187 liters per hectare (L/ha) over an application area of 0.503 square meters (m^2) at a spray height of 18 inches ([…]) above average plant canopy. Control plants were sprayed in the same manner with the solvent blank. The treated plants and control plants were placed in a greenhouse as described above and watered by sub-irrigation to prevent wash-off of the test compounds. […] Colby's equation was used to determine the herbicidal effects expected from the mixtures (Colby, S. R. Calculation of the synergistic and antagonistic response of herbicide combinations. Weeds 1967, 15, 20-22.). The following equation was used to calculate the expected activity of mixtures containing two active ingredients, A and B: […] A=observed efficacy of active ingredient A at the same concentration as used in the mixture; B=observed efficacy of active ingredient B at the same concentration as used in the mixture.

[2] = system: HELAN = Helianthus annuus L.; assay: as above; conditions: for pest or weed control at 5 g/ha / pest or weed control at 40 g/ha: Helianthus annuus, post-emergence, 480 h, read-out: HELAN Obs (observed visual injury)
Procedure: as §1

[3] = system: ZEAMX = Zea mays L.; assay: Postemergence herbicidal safening in corn (maize), greenhouse, visual injury; conditions: for ZEAMX Obs (observed visual injury, 0 = no injury, 100 = complete kill): applied alone at 4 g ai/ha
Procedure: as §1

[4] = applied alone at 5 g ai/ha, postemergence, after 20-22 days
[5] = applied alone at 40 g ai/ha, postemergence, after 20-22 days
[6] = applied alone at 20 g ai/ha, postemergence, after 20-22 days
[7] = applied alone at 80 g ai/ha, postemergence, after 20-22 days
[8] = applied alone at 160 g ai/ha, postemergence, after 20-22 days
[9] = postemergence, after 20-22 days
[10] = applied alone at 6 g ai/ha, postemergence, after 20-22 days

SMILES: CC1COc2ccccc2N1C(=O)C(Cl)Cl (racemic) [Benoxacor, (±)-4-(dichloroacetyl)-3,4-dihydro-3-methyl-2H-1,4-benzoxazine]
- pest or weed control at 5 g/ha [1, 4]: 0%
- pest or weed control at 40 g/ha [1, 5]: 0%
- pest or weed control at 5 g/ha [2, 4]: 0%
- pest or weed control at 40 g/ha [2, 5]: 0%
- ZEAMX Obs (observed visual injury) [3, 4]: 0%
- ZEAMX Obs (observed visual injury) [3, 5]: 0%

SMILES: CCCCCC(C)OC(=O)COc1ccc(Cl)c2cccnc12 (stereo not shown) [Cloquintocet-mexyl]
- ZEAMX Obs (observed visual injury) [3, 6]: 0%
- ZEAMX Obs (observed visual injury) [3, 5]: 0%
- ZEAMX Obs (observed visual injury) [3, 7]: 0%
- ZEAMX Obs (observed visual injury) [3, 8]: 0%

SMILES: CC1(C)CN2C(=O)CCC2(C)N(C(=O)C(Cl)Cl)C1 (racemic) [Dicyclonon]
- pest or weed control at 5 g/ha [1, 4]: 0%
- pest or weed control at 40 g/ha [1, 5]: 0%
- pest or weed control at 5 g/ha [2, 4]: 0%
- pest or weed control at 40 g/ha [2, 5]: 0%
- ZEAMX Obs (observed visual injury) [3, 4]: 0%
- ZEAMX Obs (observed visual injury) [3, 5]: 0%

SMILES: N#C/C(=N/OCC1OCCO1)c1ccccc1 [Oxabetrinil, α-[(1,3-dioxolan-2-yl)methoxyimino]benzeneacetonitrile]
- pest or weed control at 5 g/ha [1, 4]: 0%
- pest or weed control at 40 g/ha [1, 5]: 0%
- pest or weed control at 5 g/ha [2, 4]: 0%
- pest or weed control at 40 g/ha [2, 5]: 0%
- ZEAMX Obs (observed visual injury) [3, 4]: 0%
- ZEAMX Obs (observed visual injury) [3, 5]: 0%

SMILES: CCOC(=O)C1=NOC(c2ccccc2)(c2ccccc2)C1 [Isoxadifen-ethyl, ethyl 4,5-dihydro-5,5-diphenyl-3-isoxazole-carboxylate]
- pest or weed control at 5 g/ha [1]: 0%
- pest or weed control at 40 g/ha [1]: 0%
- pest or weed control at 5 g/ha [2]: 0%
- pest or weed control at 40 g/ha [2]: 0%
- ZEAMX Obs (observed visual injury, 0 = no injury, 100 = complete kill) [3, 9]: 0%
- ZEAMX Obs (observed visual injury) [3, 4]: 0%
- ZEAMX Obs (observed visual injury) [3, 10]: 0%
- ZEAMX Obs (observed visual injury) ([3]; applied alone at 8 g ai/ha, postemergence, after 20-22 days): 0%
- ZEAMX Obs (observed visual injury) ([3]; applied alone at 12 g ai/ha, postemergence, after 20-22 days): 0%
- ZEAMX Obs (observed visual injury) [3, 6]: 0%
- ZEAMX Obs (observed visual injury) [3, 5]: 0%
- ZEAMX Obs (observed visual injury) [3, 7]: 0%
- ZEAMX Obs (observed visual injury) [3, 8]: 3%

SMILES: COc1c(Cl)ccc(-c2nc(C(=O)OCc3ccccc3)c(Cl)c(N)c2F)c1F [Compound A benzyl ester]
- ABUTH Obs (observed visual injury) [1, 5]: 95%
- HELAN Obs (observed visual injury) [2, 5]: 94%
- ZEAMX Obs (observed visual injury, 0 = no injury, 100 = complete kill) [3, 9]: 10%
- ZEAMX Obs (observed visual injury) [3, 10]: 16%
- ZEAMX Obs (observed visual injury) [3, 6]: 32%
- ZEAMX Obs (observed visual injury) [3, 5]: 45% and 23%

SMILES: O=C1OC(=O)c2cccc3cccc1c23 [Naphthalic anhydride, naphthalene-1,8-dicarboxylic anhydride]
- pest or weed control at 5 g/ha [1, 4]: 0%
- pest or weed control at 40 g/ha [1, 5]: 0%
- pest or weed control at 5 g/ha [2, 4]: 0%
- pest or weed control at 40 g/ha [2, 5]: 0%
- ZEAMX Obs (observed visual injury) [3, 4]: 0%
- ZEAMX Obs (observed visual injury) [3, 5]: 0%

SMILES: FC(F)(F)/C(=N/OCC1OCCO1)c1ccc(Cl)cc1 [Fluxofenim, 1-(4-chlorophenyl)-2,2,2-trifluoroethanone O-(1,3-dioxolan-2-ylmethyl)oxime]
- pest or weed control at 5 g/ha [1, 4]: 0%
- pest or weed control at 40 g/ha [1, 5]: 0%
- pest or weed control at 5 g/ha [2, 4]: 0%
- pest or weed control at 40 g/ha [2, 5]: 0%
- ZEAMX Obs (observed visual injury) [3, 4]: 0%
- ZEAMX Obs (observed visual injury) [3, 5]: 0%

SMILES: C=CCN(CC=C)C(=O)C(Cl)Cl [Dichlormid, N,N-diallyl-2,2-dichloroacetamide]
- pest or weed control at 5 g/ha [1, 4]: 0%
- pest or weed control at 40 g/ha [1, 5]: 0%
- pest or weed control at 5 g/ha [2, 4]: 0%
- pest or weed control at 40 g/ha [2, 5]: 0%
- ZEAMX Obs (observed visual injury) [3, 4]: 0%
- ZEAMX Obs (observed visual injury) [3, 5]: 0%

SMILES: NC(=O)NS(=O)(=O)c1ccccc1Cl [Compound 2-CBSU, N-(aminocarbonyl)-2-chlorobenzenesulfonamide]
- pest or weed control at 5 g/ha [1, 4]: 0%
- pest or weed control at 40 g/ha [1, 5]: 0%
- pest or weed control at 5 g/ha [2, 4]: 0%
- pest or weed control at 40 g/ha [2, 5]: 0%
- ZEAMX Obs (observed visual injury) [3, 4]: 0%
- ZEAMX Obs (observed visual injury) [3, 5]: 0%

SMILES: Cc1ccc(NC(=O)NC(C)(C)c2ccccc2)cc1 [Daimuron, N-(4-methylphenyl)-N′-(1-methyl-1-phenylethyl)-urea]
- pest or weed control at 5 g/ha [1, 4]: 0%
- pest or weed control at 40 g/ha [1, 5]: 0%
- pest or weed control at 5 g/ha [2, 4]: 0%
- pest or weed control at 40 g/ha [2, 5]: 0%
- ZEAMX Obs (observed visual injury) ([3]; in vivo): 0%

SMILES: CC1(C)OC(c2ccco2)CN1C(=O)C(Cl)Cl (racemic) [Furilazole, (±)-3-(dichloroacetyl)-5-(2-furanyl)-2,2-dimethyloxazolidine]
- pest or weed control at 5 g/ha [1, 4]: 0%
- pest or weed control at 40 g/ha [1, 5]: 0%
- pest or weed control at 5 g/ha [2, 4]: 0%
- pest or weed control at 40 g/ha [2, 5]: 0%
- ZEAMX Obs (observed visual injury) [3, 4]: 0%
- ZEAMX Obs (observed visual injury) [3, 5]: 0%
